Reference: patent US10301288B2, “Kinase inhibitors” (Topivert Pharma Limited, priority 2013, dated 2019)
pIC50: −log10 of the molar value.

Assays:
c-Src = c-Src (Homo sapiens (Human), UniProt P12931); assay: c-Src enzyme inhibition (FRET); type: biochemical
Protocol: (§1) The enzyme inhibitory activities of compounds disclosed herein are determined by FRET using synthetic peptides labelled with both donor and acceptor fluorophores (Z-LYTE, Invitrogen Ltd., Paisley, UK).
(§2) The inhibitory activities of compounds of the invention against c-Src and Syk enzymes (Invitrogen), are evaluated in a similar fashion to that described hereinabove. The relevant enzyme (3000 ng/mL or 2000 ng/mL respectively, 2.5 μL) is incubated with the test compound (either 4 μg/mL, 0.4 μg/mL, 0.04 μg/mL, or 0.004 μg/mL, 2.5 μL each) for 2 hr at RT. The FRET peptides (8 μM. 2.5 μL), and appropriate ATP solutions (2.5 μL, 800 μM for c-Src, and 60 μM ATP for Syk) are then added to the enzymes/compound mixtures and incubated for 1 hr. Development reagent (protease, 5 μL) is added for 1 hr prior to detection in a fluorescence microplate reader (Varioskan® Flash, ThermoFisher Scientific).
(§3) In all cases, the site-specific protease cleaves non-phosphorylated peptide only and eliminates the FRET signal. Phosphorylation levels of each reaction are calculated using the ratio of coumarin emission (donor) over fluorescein emission (acceptor), for which high ratios indicate high phosphorylation and low ratios indicate low phosphorylation levels.

p38 MAPKα = p38 MAPKα (Homo sapiens (Human), UniProt Q16539); assay: p38 MAPKα enzyme inhibition (FRET, Method 2); type: biochemical
Sequence of p38 MAPKα (Q16539 whole entry): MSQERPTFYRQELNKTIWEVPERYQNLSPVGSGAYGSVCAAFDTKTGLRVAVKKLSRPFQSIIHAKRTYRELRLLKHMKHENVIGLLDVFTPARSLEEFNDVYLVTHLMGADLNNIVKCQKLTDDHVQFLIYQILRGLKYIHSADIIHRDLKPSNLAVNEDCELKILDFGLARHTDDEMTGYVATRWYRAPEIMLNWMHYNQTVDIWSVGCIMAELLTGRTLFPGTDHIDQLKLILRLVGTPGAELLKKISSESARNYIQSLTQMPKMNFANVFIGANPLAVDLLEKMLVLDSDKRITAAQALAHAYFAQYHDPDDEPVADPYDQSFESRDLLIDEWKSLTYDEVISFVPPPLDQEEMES
Protocol: as §1
The inhibitory activities of test compounds against the p38 MAPKα isoform (MAPK14: Invitrogen), are evaluated indirectly by determining the level of activation/phosphorylation of the down-stream molecule, MAPKAP-K2. The p38 MAPKα protein (80 ng/mL, 2.5 μL) is mixed with the test compound (2.5 μL of either 4 μg/mL, 0.4 μg/mL, 0.04 μg/mL or 0.004 μg/mL) for 2 hr at RT. […] The mixture is incubated for 1 hr at RT. Development reagent (protease, 5 μL) is added for 1 hr prior to detection in a fluorescence microplate reader (Varioskan® Flash, ThermoFisher Scientific).
as §3

GSK3α = GSK3α (Homo sapiens (Human), UniProt P49840); assay: GSK 3α enzyme inhibition (FRET, Method 2); type: biochemical
Sequence of GSK3α (P49840 whole entry): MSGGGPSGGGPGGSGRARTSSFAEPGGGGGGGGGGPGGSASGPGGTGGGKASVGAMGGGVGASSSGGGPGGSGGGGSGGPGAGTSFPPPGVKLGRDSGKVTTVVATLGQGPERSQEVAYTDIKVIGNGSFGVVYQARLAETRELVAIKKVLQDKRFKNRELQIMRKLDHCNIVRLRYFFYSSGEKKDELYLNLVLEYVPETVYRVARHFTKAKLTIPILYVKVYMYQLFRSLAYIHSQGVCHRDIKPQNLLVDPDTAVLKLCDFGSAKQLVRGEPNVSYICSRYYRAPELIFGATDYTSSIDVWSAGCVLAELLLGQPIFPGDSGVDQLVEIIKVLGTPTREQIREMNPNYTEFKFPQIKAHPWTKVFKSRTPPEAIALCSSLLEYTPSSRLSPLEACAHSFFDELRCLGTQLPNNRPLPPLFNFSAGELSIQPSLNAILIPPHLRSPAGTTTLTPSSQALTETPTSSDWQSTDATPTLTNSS
Protocol: as §1
The inhibitory activities of compounds of the invention against the GSK 3α enzyme isoform (Invitrogen), are evaluated by determining the level of activation/phosphorylation of the target peptide. The GSK3-α protein (500 ng/mL, 2.5 μL) is mixed with the test compound (2.5 μL at either 4 μg/mL, 0.4 μg/mL, 0.04 μg/mL, or 0.004 μg/mL) for 2 hr at RT. The FRET peptide (8 μM, 2.5 μL), which is a phosphorylation target for GSK3α, and ATP (40 μM, 2.5 μL) are then added to the enzyme/compound mixture and the resulting mixture incubated for 1 hr. Development reagent (protease, 5 μL) is added for 1 hr prior to detection in a fluorescence microplate reader (Varioskan® Flash, ThermoFisher Scientific).
as §3

PBMCs [1] = assay: (b) LPS-induced TNFα/IL-8 release in PBMC cells; type: cell-based; details: Homo sapiens, read-out: IC50 for Inhibition of Cytokine Release, IL-8
Protocol: Peripheral blood mononuclear cells (PBMCs) from healthy subjects are separated from whole blood using a density gradient (Lymphoprep, Axis-Shield Healthcare). The PBMCs are seeded in 96 well plates and treated with compounds at the desired concentration for 2 hours before addition of 1 ng/ml LPS (Escherichia Coli 0111:B4 from Sigma Aldrich) for 24 hours under normal tissue culture conditions (37° C., 5% CO2). The supernatant is harvested for determination of IL-8 and TNFα concentrations by sandwich ELISA (Duo-set, R&D systems) and read on the fluorescence microplate reader (Varioskan® Flash, ThermoFisher Scientific).

β-catenin = assay: (m) Accumulation of β catenin in d-U937 cells; type: cell-based, human; details: Reference Compound at 1 μg/mL defined as 100%
Protocol: U937 cells, a human monocytic cell line, are differentiated into macrophage-type cells by incubation with PMA; (100 ng/mL) for between 48 to 72 hr. The cells are then incubated with either final concentrations of test compound or vehicle for 18 hr. The induction of β-catenin by the test compounds is stopped by replacing the media with 4% formaldehyde solution. Endogenous peroxide activity is neutralised by incubating with quenching buffer (100 μL, 0.1% sodium azide, 1% H2O2 in PBS with 0.05% Tween-20) for 20 min. The cells are washed with washing buffer (200 μL; PBS containing 0.05% Tween-20) and incubated with blocking solution (200 μL; 5% milk in PBS) for 1 hr, re-washed with washing buffer (200 μL) and then incubated overnight with anti-β-catenin antibody solution (50 μL) in 1% BSA/PBS (BD, Oxford, UK).
After washing with washing buffer (3×200 μL; PBS containing 0.05% Tween-20), cells are incubated with an HRP-conjugated secondary antibody solution (100 μL) in 1% BSA/PBS (Dako, Cambridge, UK) and the resultant signal is determined colourimetrically (OD: 450 nm with a reference wavelength of 655 nm) using TMB substrate (50 μL; R&D Systems, Abingdon, UK). This reaction is stopped by addition of 1N H2SO4 solution (50 μL). Cells are then washed with washing buffer and 2% crystal violet solution (50 μL) is applied for 30 min. After washing with washing buffer (3×200 μL), 1% SDS (100 μL) is added to each well and the plates are shaken lightly for 1 hr prior to measuring the absorbance at 595 nm (Varioskan® Flash, Thermo-Fisher Scientific).
The measured OD450-655 readings are corrected for cell number by dividing the OD450-655 by the OD595 readings.

PBMCs [2] = assay: (i) Cell mitosis assay in PBMCs; type: cell-based; details: Homo sapiens, PBMC, 5 μg/mL
Protocol: PBMCs from healthy subjects are separated from whole blood (Quintiles, London, UK) using a density gradient (Histopaque®-1077, Sigma-Aldrich, Poole, UK). The PBMCs (3 million cells per sample) are subsequently treated with 2% PHA (Sigma-Aldrich, Poole, UK) for 48 hr, followed by a 20 hr exposure to varying concentrations of test compounds. At 2 hr before collection, PBMCs are treated with demecolcine (0.1 μg/mL; Invitrogen, Paisley, UK) to arrest cells in metaphase. […] Fluorescence is observed using an ATTUNE flow cytometer (Invitrogen, Paisley, UK), gating for lymphocytes.

Syk = Syk (Homo sapiens (Human), UniProt P43405); assay: Syk enzyme inhibition (FRET); type: biochemical
Protocol: as §1, §2, §3

PBMCs [3] = assay: (c) IL-2 and IFN gamma release in CD3/CD28 stimulated PBMC cells; type: cell-based; details: Homo sapiens
Protocol: PBMCs from healthy subjects are separated from whole blood using a density gradient (Lymphoprep, Axis-Shield Healthcare). Cells are added to a 96 well plate pre-coated with a mixture of CD3/CD28 monoclonal antibodies (0.3 ug/ml eBioscience and 3 ug/ml BD Pharmingen respectively). Compound at the desired concentration is then added to the wells and the plate left for 3 days under normal tissue culture conditions. […] The IC50 is determined from the dose response curve.

HT29 cells = assay: (d) IL-1β-induced IL-8 release in HT29 cells; type: cell-based; details: Homo sapiens, HT-29, read-out: IC50 for Inhibition of Cytokine Release, IL-8
Protocol: HT29 cells, a human colon adenocarcinoma cell line, are plated in a 96 well plate (24 hrs) and pre-treated with compounds at the desired concentration for 2 hours before addition of 5 ng/ml of IL-1β (Abeam) for 24 hours. Supernatants are harvested for IL-8 quantification by Sandwich ELISA (Duo-set, R&D System). The IC50 is determined from the dose response curve.

[4] = read-out: IC50 for Inhibition of Cytokine Release, IFNγ
[5] = read-out: IC50 for Inhibition of Cytokine Release, IL-2

Sequence of c-Src (P12931 whole entry, looked up): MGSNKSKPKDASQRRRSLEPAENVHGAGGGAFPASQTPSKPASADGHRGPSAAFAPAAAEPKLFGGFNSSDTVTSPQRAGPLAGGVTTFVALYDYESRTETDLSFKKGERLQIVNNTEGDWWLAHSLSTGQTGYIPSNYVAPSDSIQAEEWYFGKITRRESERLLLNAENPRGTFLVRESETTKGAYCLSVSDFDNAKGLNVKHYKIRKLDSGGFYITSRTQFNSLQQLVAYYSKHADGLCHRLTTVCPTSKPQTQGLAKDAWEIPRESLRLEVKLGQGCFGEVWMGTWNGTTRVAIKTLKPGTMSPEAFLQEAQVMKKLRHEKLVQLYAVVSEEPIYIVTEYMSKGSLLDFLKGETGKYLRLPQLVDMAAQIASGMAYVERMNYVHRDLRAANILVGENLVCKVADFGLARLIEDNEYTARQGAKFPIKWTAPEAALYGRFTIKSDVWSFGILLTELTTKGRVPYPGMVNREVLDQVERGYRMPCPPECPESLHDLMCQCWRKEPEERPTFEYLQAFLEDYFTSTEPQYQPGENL

| SMILES | pIC50 (c-Src) | pIC50 (p38 MAPKα) | pIC50 (GSK3α) | pIC50 (Syk) | pIC50 (HT29 cells) | pIC50 (PBMCs [1]) | % β-catenin induction (β-catenin; 1 μg/mL) [%] | % β-catenin induction (β-catenin; 5 μg/mL) [%] | % β-catenin induction (β-catenin; 10 μg/mL) [%] | inhibition at 5 µg/mL (PBMCs [2]) [%] | pIC50 (PBMCs [3]; [4]) | pIC50 (PBMCs [3]; [5]) |
| --- | --- | --- | --- | --- | --- | --- | --- | --- | --- | --- | --- | --- |
| C#Cc1cc(Nc2nccc(Oc3ccc(NC(=O)Nc4cc(C(C)C)nn4-c4ccc(C)cc4)c4ccccc34)n2)cc(C(=O)NCCOCCOCCOC)c1 [Example 1, 3-Ethynyl-5-((4-((4-(3-(3-isopropyl-1-(p-tolyl)-1H-pyrazol-5-yl)ureido)-naphthalen-1-yl)oxy)pyrimidin-2-yl)amino)-N-(2-(2-(2-methoxyethoxy)ethoxy)ethyl)-benzamide] | 7.52 | 7.60 | 4.89 | 6.43 |  | 8.80 | −14 | −13 | −17 | 3.6 |  |  |
| C#Cc1cc(Nc2nccc(Oc3ccc(NC(=O)Nc4cc(C(C)(C)C)nn4-c4ccc(OC)cc4)c4ccccc34)n2)cc(C(=O)NCCOCCOCCOC)c1 [Example 3, 3-((4-((4-(3-(3-(tert-Butyl)-1-(4-methoxyphenyl)-1H-pyrazol-5-yl)ureido)-naphthalen-1-yl)oxy)pyrimidin-2-yl)amino)-5-ethynyl-N-(2-(2-(2-methoxyethoxy)-ethoxy)ethyl)benzamide] | 7.85 | 7.41 | 4.92 | 7.52 |  | 8.92 | 1 | 6 | 6 | 2.1 | 8.70 | 8.12 |
| C#Cc1cc(Nc2nccc(Oc3ccc(NC(=O)Nc4cc(C(C)(C)C)nn4-c4ccc(OC)cc4)c4ccccc34)n2)cc(C(=O)NCCOCCOC)c1 [Example 5, 3-((4-((4-(3-(3-(tert-Butyl)-1-(4-methoxyphenyl)-1H-pyrazol-5-yl)ureido)-naphthalen-1-yl)oxy)pyrimidin-2-yl)amino)-5-ethynyl-N-(2-(2-methoxyethoxy)ethyl)-benzamide] | 7.89 | 7.48 | 4.89 | 7.47 |  | 8.92 | 8 | 2 | 3 | 10.4 | 8.77 | 7.28 |
| C#Cc1cc(Nc2nccc(Oc3ccc(NC(=O)Nc4cc(C(C)(C)C)nn4-c4ccc(N(C)C)cc4)c4ccccc34)n2)cc(C(=O)NCCOCCOCCOC)c1 [Example 9, 3-((4-((4-(3-(3-(tert-Butyl)-1-(4-(dimethylamino)phenyl)-1H-pyrazol-5-yl)ureido)-naphthalen-1-yl)oxy)pyrimidin-2-yl)amino)-5-ethynyl-N-(2-(2-(2-methoxyethoxy)-ethoxy)ethyl)benzamide] | 7.82 | 7.01 | 4.92 | 7.46 | 8.46 | 8.54 | 1 | 2 | 4 |  | 8.08 |  |

Continued, in another order:

| pIC50 (c-Src) | pIC50 (p38 MAPKα) | pIC50 (GSK3α) | pIC50 (Syk) | pIC50 (HT29 cells) | SMILES | pIC50 (PBMCs [1]) | % β-catenin induction (β-catenin; 1 μg/mL) [%] | % β-catenin induction (β-catenin; 5 μg/mL) [%] | % β-catenin induction (β-catenin; 10 μg/mL) [%] | inhibition at 5 µg/mL (PBMCs [2]) [%] | pIC50 (PBMCs [3]; [4]) | pIC50 (PBMCs [3]; [5]) |
| --- | --- | --- | --- | --- | --- | --- | --- | --- | --- | --- | --- | --- |
| 7.60 | 6.96 | 4.92 | 7.32 | 8.32 | COCCOCCOCCNC(=O)c1cc(Nc2cc(Oc3ccc(NC(=O)Nc4cc(C(C)(C)C)nn4-c4ccc(N(C)C)cc4)c4ccccc34)ccn2)cc(OC)c1 [Example 10, 3-((4-((4-(3-(3-(tert-Butyl)-1-(4-(dimethylamino)phenyl)-1H-pyrazol-5-yl)ureido)-naphthalen-1-yl)oxy)pyridin-2-yl)amino)-5-methoxy-N-(2-(2-(2-methoxyethoxy)-ethoxy)ethyl)benzamide] | 8.48 | 4 | 2 | 2 |  | 8.57 |  |
| 7.68 | 6.43 | 5.67 | 6.91 | 8.44 | C#Cc1cc(Nc2nccc(Oc3ccc(NC(=O)Nc4cc(C(C)(C)C)nn4-c4ccc(OC)cc4OC)c4ccccc34)n2)cc(C(=O)NCCOCCOCCOC)c1 [Example 13, 3-((4-((4-(3-(3-(tert-Butyl)-1-(2,4-dimethoxyphenyl)-1H-pyrazol-5-yl)ureido)naphthalen-1-yl)oxy)pyrimidin-2-yl)amino)-5-ethynyl-N-(2-(2-(2-methoxyethoxy)ethoxy)ethyl)-benzamide] | 8.34 | −5 | −2 | −4 |  |  |  |
| 7.74 | 7.47 | 5.50 | 7.24 | 8.70 | COCCOCCOCCNC(=O)c1cc(Nc2cc(Oc3ccc(NC(=O)Nc4cc(C(C)(C)C)nn4-c4cccc(CP(C)(C)=O)c4)c4ccccc34)ccn2)cc(OC)c1 [Example 15, 3-((4-((4-(3-(3-(tert-Butyl)-1-(3-((dimethylphosphoryl)methyl)phenyl)-1H-pyrazol-5-yl)-ureido)naphthalen-1-yl)oxy)pyridin-2-yl)amino)-5-methoxy-N-(2-(2-(2-methoxyethoxy)-ethoxy)ethyl)benzamide] | 8.92 | 4 | 11 | 27 |  |  |  |
